How the values were obtained:
[1] = tested on: cholangiocarcinoma cell line HuCC-T1 (spheroid culture); assay: Cell viability (CellTiter Glo) of HuCC-T1 in spheroid culture in combination with cisplatin; format: cell-based, human; details: for viability at 0.001 µM / viability at 0.003 µM / viability at 0.01 µM / viability at 0.03 µM / viability at 0.1 µM / viability at 0.3 µM / viability at 1 µM / viability at 3 µM / viability at 10 µM / IC50: Homo sapiens; for viability at 0.001 µM / viability at 0.003 µM / viability at 0.01 µM / viability at 0.03 µM / viability at 0.1 µM / viability at 0.3 µM / viability at 1 µM / viability at 3 µM / viability at 10 µM: HuCCT-1, 72 h, HuCC-T1 spheroid, with cisplatin 10 μmol/L, 3 days; for viability at 0.001 µM: test substance 1.0 nM; for viability at 0.003 µM: test substance 3.0 nM; for viability at 0.01 µM: test substance 10.0 nM; for viability at 0.03 µM: test substance 30.0 nM; for viability at 0.1 µM: test substance 100.0 nM; for viability at 0.3 µM: test substance 300.0 nM; for viability at 1 µM: test substance 1000.0 nM; for viability at 3 µM: test substance 3000.0 nM; for viability at 10 µM: test substance 10000.0 nM; for IC50: HuCCT-1, in combination with cisplatin (10 μmol/L); for IC50 / CI: HuCC-T1 spheroid culture; for CI: combination with cisplatin
Excerpt: (§1) On the combinational effect of the embodiment of the invention, the results of evaluation using a combination index (CI) which is a quantitative index of the combinational effect are shown. The CI can be calculated by the following equation according to Cancer Research, 2010, Vol. 70, pp. 440 to 446.
(§2) That is, in a case where the drugs to be used in combination are drug 1 and drug 2, the CI at a certain drug concentration is
(§3) CI={(cell viability in case of using drug 1 and drug 2 in combination)/100}/{[(cell viability in case of using drug 1)/100]×[(cell viability in case of using drug 2)/100]}
Evaluation of Antitumor Activity Against Cholangiocarcinoma Cell Line HuCC-T1 by Combined Use of Cisplatin in Spheroid Culture
(§4) Gemcitabine, cisplatin, and methanesulfonate of Compound A were used as test substances.
(§5) Gemcitabine hydrochloride (manufactured by Plantex Co., Ltd.) dissolved in dimethyl sulfoxide (DMSO) was used as gemcitabine. Cisplatin (Cat. #039-20091, manufactured by Wako Pure Chemical Industries, Ltd.) dissolved in DMSO was used as cisplatin.
(§6) The cholangiocarcinoma cell line HuCC-T1 cells were subcultured in RPMI-1640 medium supplemented with 10% serum (Cat. #10437-028, manufactured by Thermo Fisher Scientific Inc.). During this test, all cell cultures were carried out in a CO2 incubator (set to 37° C. and 5% CO2, saturated with water vapor). The culture was diluted with 10% serum-supplemented medium to a cell density of 5000 cells/well/100 μL, and seeded on an Ultra-Low Attachment 96-well plate (Cat. #7007, manufactured by Corning Incorporated). The cells were cultured for 4 days to form spheroids.
(§7) The methanesulfonate of Compound A and gemcitabine were dissolved in DMSO to prepare 10 mmol/L DMSO solutions thereof. The thus-prepared DMSO solutions were diluted sequentially with DMSO to prepare DMSO solutions having a final treatment concentration of 1000-fold dilution. Cisplatin was dissolved in DMSO to prepare a 100 mmol/L DMSO solution. The thus-prepared DMSO solution of cisplatin was diluted with DMSO to prepare a DMSO solution having a final treatment concentration of 5000-fold dilution. Further, the DMSO solution of cisplatin was diluted with 10% serum-supplemented medium to prepare a cisplatin-containing medium having a final treatment concentration of 10-fold dilution. The DMSO diluted solutions of Compound A and gemcitabine were diluted with the cisplatin-containing medium to prepare treatment liquids having a final treatment concentration of 10-fold dilution. Compound A and gemcitabine were used with a maximum concentration of 10 μmol/L at a common ratio of 1/3 and 9 concentrations in combination with cisplatin (10 μmol/L).
(§8) 10 μL of Compound A or gemcitabine diluted with the cisplatin-containing medium was added to each well. In addition, a group in which only a solvent containing no drug was added to wells in which cells were seeded (positive control), and a group in which only a solvent containing no drug was added to wells containing only a medium (negative control) were provided. All groups were set to n=3 well.
(§9) The cells were cultured for 3 days after the addition of the drug, and the cell viability was evaluated using a CellTiter Glo (registered trademark) Reagent (Cat. #G7570, manufactured by Promega Corporation) with the intracellular ATP level as an index. The concentration that inhibits cell viability by 50% (IC50 value) was calculated using XLFit software Ver.3 (registered trademark, manufactured by CTC Laboratory Systems Corporation).
(§10) The cell viability of each well was determined with the luminescence signal level of the negative control being 0% cell viability and the luminescence signal level of the positive control being 100% cell viability. The average value and standard deviation of the cell viability of each treatment group were calculated to prepare Table 10.

[2] = tested on: human breast cancer cell line HCC1954 (spheroid culture); assay: Cell viability (CellTiter Glo) of HCC1954 in spheroid culture in combination with cisplatin; format: cell-based; details: for CI / IC50: HCC1954 spheroid culture; for CI: combination with cisplatin; for viability at 0.001 µM / viability at 0.003 µM / viability at 0.01 µM / viability at 0.03 µM / viability at 0.1 µM / viability at 0.3 µM / viability at 1 µM / viability at 3 µM / viability at 10 µM / IC50: Homo sapiens; for viability at 0.001 µM / viability at 0.003 µM / viability at 0.01 µM / viability at 0.03 µM / viability at 0.1 µM / viability at 0.3 µM / viability at 1 µM / viability at 3 µM / viability at 10 µM: 72 h, HCC1954 spheroid, with cisplatin 10 μmol/L, 3 days; for viability at 0.001 µM: test substance 1.0 nM; for viability at 0.003 µM: test substance 3.0 nM; for viability at 0.01 µM: test substance 10.0 nM; for viability at 0.03 µM: test substance 30.0 nM; for viability at 0.1 µM: test substance 100.0 nM; for viability at 0.3 µM: test substance 300.0 nM; for viability at 1 µM: test substance 1000.0 nM; for viability at 3 µM: test substance 3000.0 nM; for viability at 10 µM: test substance 10000.0 nM; for IC50: in combination with cisplatin (10 μmol/L)
Excerpt: as §1, §2, §3
Evaluation of Antitumor Activity Against Breast Cancer-Derived Cell Line HCC1954 by Combined Use of Cisplatin in Spheroid Culture
as §4, §5
as §6, with “human breast cancer” for “cholangiocarcinoma”, “HCC1954” for “HuCC-T1”
as §7, with “(10 μmol/L, 5” for “(10”
as §8, §9
as §10, with “11.” for “10.”

| Compound | viability at 0.001 µM [1] | viability at 0.003 µM [1] | viability at 0.01 µM [1] | viability at 0.03 µM [1] | viability at 0.1 µM [1] | viability at 0.3 µM [1] | viability at 1 µM [1] | viability at 3 µM [1] | viability at 10 µM [1] | IC50 [1] | CI [1] | CI [2] | viability at 0.001 µM [2] | viability at 0.003 µM [2] | viability at 0.01 µM [2] | viability at 0.03 µM [2] | viability at 0.1 µM [2] | viability at 0.3 µM [2] | viability at 1 µM [2] | viability at 3 µM [2] | further results |
| --- | --- | --- | --- | --- | --- | --- | --- | --- | --- | --- | --- | --- | --- | --- | --- | --- | --- | --- | --- | --- | --- |
| Nc1ccn([C@@H]2S[C@H](CO)[C@@H](O)[C@@H]2F)c(=O)n1 [Compound A, 1-(2-deoxy-2-fluoro-4-thio-β-D-arabinofuranosyl)cytosine] | 95% | 93% | 87% | 77% | 58% | 41% | 36% | 35% | 34% | 165 nM | 0.42 | 0.03 | 92% | 94% | 75% | 65% | 38% | 15% | 2% | 2% | viability at 10 µM [2]: 2%; IC50 [2]: 49.4 nM |
| Nc1ccn([C@@H]2O[C@H](CO)[C@@H](O)C2(F)F)c(=O)n1 [Gemcitabine] | 94% | 96% | 94% | 90% | 88% | 84% | 79% | 73% | 50% | ≥ 10000 nM | 0.79 | 0.60 | 96% | 100% | 101% | 97% | 88% | 73% | 60% | 52% | viability at 10 µM [2]: 50%; IC50 [2]: ≥ 10000 nM |
